# Measured values reported in patent US20230107216A1, “PANTETHEINE DERIVATIVES AND USES THEREOF” (Comet Therapeutics, Inc., priority 2018, published 2023).
# Read-outs that look alike come from different tables or passages of the source.
# Experiments:
# [1] = tested on: Very long-chain acyl-CoA dehydrogenase (VLCAD) primary fibroblasts GM17475; assay: NADP+/NADPH (NADP/NADPH-Glo), VLCAD fibroblasts GM17475; format: cell-based; settings: Homo sapiens, Fibroblast, 24h, read-out: Increase in Total NADP+ + NADPH
# Protocol: Primary adherent fibroblasts were cultured in minimum essential medium (MEM) (Gibco, 25030081) supplemented with 2 mM L-Glutamine (Gibco, 25030081), 15% fetal bovine serum (FBS) (Gibco, 26400044) and 1% penicillin/streptomycin (Gibco, 5140122) at 37° C. and 5% CO2. Cells were collected for either passaging or experiment at ˜70-80% confluence. Cells were obtained by trypsinization and seeded in cell culture microplates either white plate (Thermo Fisher Scientific, 152028) for luminescent measurement or black plate (Thermo Fisher Scientific, 165305) for fluorescent based read out for different assays listed below. Cells were obtained by trypsinization and […] were seeded and allowed to adhere for 16-18 hours to have confluency around 70-80% in the cell well with culture media. After 24 hours prior to measurements (37° C., 5% CO2) media was changed to Dulbecco's Modified Eagle Medium (DMEM, Agilent Seahorse cat #103575-100) with the appropriate supplements as stated below.
# Primary fibroblasts assayed were Propionic Acidemia (PA) (GM03590 Coriell Institute for Medical Research, Tsi 6337 Trans-Hit Bio), Methylmalonic Acidemia (MMA) (Tsi 5224 Trans-Hit Bio), Subnormal activation of pyruvate dehydrogenase complex (PDH) (GM01503 Coriell Institute for Medical Research), Very long-chain acyl-CoA dehydrogenase (VLCAD) (GM17475), Leigh Syndrome (LS) (GM03672, GM13411 Coriell Institute for Medical Research), Pyruvate Carboxylase Deficiency (PC) (GM00444 Coriell Institute for Medical Research). 10 μM of Compounds were added for 2 hours in PA, MMA lines and for 24h for the other fibroblast lines.
# Assay was performed according to manufacturer instructions (NADP+/NADPH-Glo Assay Promega, G9082). Assay required a plate for total measurement of NADP+/NADPH and a plate for individual measurement of NADP+ or NADPH. For every assay a 12-point standard curve is prepared ranging from 400 nM to 0.625 nM. Media is removed and replaced with 50 μl of PBS for both assays.
# For individual NADP+/NADPH measurements, 50 μl of 1% DTAB (Sigma, D5047) (cell lysis reagent) in 0.2N NaOH was added to the plates and 100 μl of lysate was split into two plates with 50 μl each from which ratio of NADP/NADPH can be calculated. 25 μl of 0.4N HCl were added to the NADP+ plates and both NADP+ and NADPH plates were heated at 60° C. for 15 minutes. The acid and heat treatment destroyed NADPH allowing individual NADP+ measurements while heating in basic conditions destroys NADP+ allowing individual NADPH measurement. After 15 minutes plates were allowed to come to room temperature and Trizma base (Sigma, T1699) was added to the NADP+ plates to neutralize the acid and HCl Trizma hydrochloride (Sigma, T2694) was added to the NADPH plates. The NADNADPH glo reagent was prepared by adding 125 μl of NAD cycling substrate, 125 μl of reductase, 125 μl of reductase substrate, 125 μl NAD cycling enzyme to a total of the 25 ml of NAD GLO reagent. 1:1 ratio of total volume of reagent was added to the individual NADP+, NADPH measurements (total 100 μl) and 50 μl were added for the total NAD/NADPH measurements. Luminescence was measured for 30-60 minutes within the linear range.
# A total dead cell count was performed as described in Example 817 and only alive cells were used for analysis.
# [2] = tested on: Bronchial epithelial cells co-cultured with dermal fibroblast (BF4T system); assay: BioMAP BF4T system (TNFα and IL-4); format: cell-based, human; settings: for activation at 1 µM / activation at 10 µM: Homo sapiens, 24 h, read-out: % increase in VCAM-1
# [3] = VLCAD GM17475 P10, assay condition A (10 mM glucose, 2 mM L-glutamine, 1 mM pyruvate, 10% FBS)
# [4] = 10 uM, procedure of Example 830
# [5] = VLCAD GM17475 P10, assay condition B (1 mM glucose, 2 mM L-glutamine, 1 mM pyruvate, 10% FBS)
structure (smiles),measurement,setting,value
"CC(=O)OCC(C)(C)[C@@H](OC(C)=O)C(=O)NCCC(=O)NCCSC(C)=O [Compound 1264, (1R)-3-(acetyloxy)-1-[(2-[[2-(acetylsulfanyl)ethyl]carbamoyl]ethyl)carbamoyl]-2,2-dimethylpropyl acetate]",activation at 10 µM,[1]; [3],≥ 10%
same,activation at 1 µM,"[2]; 1 uM, procedure of Example 830",≥ 10%
"COC(=O)CCC(=O)SCCNC(=O)CCNC(=O)[C@H](OC(=O)CN)C(C)(C)CO [Compound 1294, methyl 4-[(2-[3-[(2R)-2-[(2-aminoacetyl)oxy]-4-hydroxy-3,3-dimethylbutanamido]propanamido]ethyl)sulfanyl]-4-oxobutanoate]",% decrease in tPA,[2]; [4],≥10%
"CCCCCCC(=O)SCCNC(=O)CCNC(=O)[C@H](O)C(C)(C)CO [Compound 372, (2R)—N-(2-[[2-(heptanoylsulfanyl)ethyl]carbamoyl]ethyl)-2,4-dihydroxy-3,3-dimethylbutanamide]",activation at 1 µM,"[2]; 1 uM, procedure of Example 830",≥ 10%
"CC(=O)SCCNC(=O)CCNC(=O)[C@H](O)C(C)(C)COC(=O)[C@@H](N)Cc1ccc(O)c(O)c1 [Compound 498, (3R)-3-[(2-[[2-(acetylsulfanyl)ethyl]carbamoyl]ethyl)carbamoyl]-3-hydroxy-2,2-dimethylpropyl (2S)-2-amino-3-(3,4-dihydroxyphenyl)propanoate]",% increase in 1L-8,"[2]; 1 uM, procedure of Example 830",≥10%
same,% increase in MCP-1,"[2]; 1 uM, procedure of Example 830",≥10%
same,% decrease in IL-1α,[2]; 10 uM,≥10%
same,% increase in Eotaxin-3,[2]; [4],≥10%
same,% increase in MMP-9,[2]; [4],≥10%
same,activation at 10 µM,[2]; [4],≥ 10%
"CC(C)(CO)[C@@H](O)C(=O)NCCC(=O)NCCSC(=O)[C@@H](N)Cc1ccc(O)c(O)c1 [Compound 371, (2R)—N-[2-[(2-[[(2S)-2-amino-3-(3,4-dihydroxyphenyl)propanoyl]sulfanyl]ethyl)carbamoyl]ethyl]-2,4-dihydroxy-3,3-dimethylbutanamide]",% increase in MCP-1,"[2]; 1 uM, procedure of Example 830",≥10%
same,% increase in MMP-9,"[2]; 1 uM, procedure of Example 830",≥10%
same,% increase in Eotaxin-3,[2]; [4],≥10%
same,activation at 1 µM,"[2]; 1 uM, procedure of Example 830",≥ 10%
"CCC(=O)CC(=O)SCCNC(=O)CCNC(=O)[C@H](O)C(C)(C)CO [Compound 382, (2R)-2,4-dihydroxy-3,3-dimethyl-N-[2-([2-[(3-oxopentanoyl)sulfanyl]ethyl]carbamoyl)ethyl]butanamide]",activation at 10 µM,[1]; [3],≥ 10%
"CC[C@@H](O)CC(=O)SCCNC(=O)CCNC(=O)[C@H](O)C(C)(C)CO [Compound 1245, (2R)-2,4-dihydroxy-N-{2-[(2-{[(3R)-3-hydroxypentanoyl]sulfanyl}ethyl)carbamoyl]ethyl}-3,3-dimethylbutanamide]",activation at 10 µM,[1]; [3],≥ 10%
"COC(=O)CCC(=O)SCCNC(=O)CCNC(=O)[C@H](OC(=O)CNC(C)=O)C(C)(C)CO [Compound 1298, methyl 4-[(2-[3-[(2R)-2-[(2-acetamidoacetyl)oxy]-4-hydroxy-3,3-dimethylbutanamido]propanamido]ethyl)sulfanyl]-4-oxobutanoate]",activation at 10 µM,[2]; [4],≥ 10%
CC(O)CC(O)CC(O)CC(=O)SCCNC(=O)CCNC(=O)[C@H](O)C(C)(C)CO (stereo partly drawn) [Compound 401],activation at 10 µM,[1]; [5],≥ 10%
"CC(=O)SCCNC(=O)CCNC(=O)[C@H](O)C(C)(C)COC(=O)[C@H](C)N [Compound 502, (3R)-3-[(2-[[2-(acetylsulfanyl)ethyl]carbamoyl]ethyl)carbamoyl]-3-hydroxy-2,2-dimethylpropyl (2S)-2-aminopropanoate]",% decrease in IL-1α,[2]; 10 uM,≥10%
same,activation at 1 µM,"[2]; 1 uM, procedure of Example 830",≥ 10%
"CC(C)(CO)[C@@H](O)C(=O)NCCC(=O)NCCSC(=O)CC(=O)CCC(=O)O [Compound 2, 6-[(2-[3-[(2R)-2,4-dihydroxy-3,3-dimethylbutanamido]propanamido]ethyl)sulfanyl]-4,6-dioxohexanoic acid]",activation at 10 µM,[1]; [3],≥ 10%
"C[C@@H](O)CC(=O)CC(=O)SCCNC(=O)CCNC(=O)[C@H](O)C(C)(C)CO [Compound 42, (2R)-2,4-dihydroxy-N-[2-[(2-[[(5R)-5-hydroxy-3-oxohexanoyl]sulfanyl]ethyl)carbamoyl]ethyl]-3,3-dimethylbutanamide]",activation at 10 µM,[1]; [3],≥ 10%
same,% decrease in IL-1α,[2]; 10 uM,≥10%
same,% increase in Eotaxin-3,[2]; [4],≥10%
same,% increase in MMP-3,[2]; [4],≥10%
same,% increase in keratin 8/18,[2]; [4],≥10%
same,activation at 10 µM,[2]; [4],≥ 10%
"COC(=O)CC(SCCNC(=O)CCNC(=O)[C@H](O)C(C)(C)COC(C)=O)C(=O)OC (stereo partly drawn) [Compound 149, 1,4-dimethyl 2-[(2-[3-[(2R)-4-(acetyloxy)-2-hydroxy-3,3-dimethylbutanamido]propanamido]ethyl)sulfanyl]butanedioate]",% decrease in MMP-9,"[2]; 1 uM, procedure of Example 830",≥10%
same,% increase in Eotaxin-3,[2]; [4],≥10%
same,activation at 10 µM,[2]; [4],≥ 10%
"CC(O)C(C(=O)SCCNC(=O)CCNC(=O)[C@H](O)C(C)(C)CO)C(C)O (stereo partly drawn) [Compound 1285, (2R)-2,4-dihydroxy-N-[2-[(2-[[3-hydroxy-2-(1-hydroxyethyl)butanoyl]sulfanyl]ethyl)carbamoyl]ethyl]-3,3-dimethylbutanamide]",activation at 10 µM,[1]; [3],≥ 10%
"CC(=O)SCCNC(=O)CCNC(=O)[C@H](O)C(C)(C)COC(=O)CCC(=O)O [Compound 1242, (R)-12-hydroxy-13,13-dimethyl-2,7,11,16-tetraoxo-15-oxa-3-thia-6,10-diazanonadecan-19-oic acid]",activation at 10 µM,[1]; [3],≥ 10%
"CC(C)(COC(=O)OCC[N+](C)(C)C)[C@@H](O)C(=O)NCCC(=O)NCCSC(=O)CCC(=O)O [Compound 116, [2-([[(3R)-3-[[2-([2-[(3-carboxypropanoyl)sulfanyl]ethyl]carbamoyl)ethyl]carbamoyl]-3-hydroxy-2,2-dimethylpropoxy]carbonyl]oxy)ethyl]trimethylazanium]",% increase in MMP-3,"[2]; 1 uM, procedure of Example 830",≥10%
same,% increase in keratin 8/18,"[2]; 1 uM, procedure of Example 830",≥10%
same,% decrease in IL-1α,[2]; 10 uM,≥10%
same,activation at 10 µM,[2]; [4],≥ 10%
CC(O)CC(O)CC(=O)SCCNC(=O)CCNC(=O)[C@H](O)C(C)(C)CO (stereo partly drawn) [Compound 400],activation at 10 µM,[1]; [5],≥ 10%
COC(=O)CC(C(C)=O)C(=O)SCCNC(=O)CCNC(=O)[C@H](O)C(C)(C)CO (stereo partly drawn) [Compound 410],activation at 10 µM,[1]; [3],≥ 10%
"CC(=O)OCC(C)(C)[C@@H](O)C(=O)NCCC(=O)NCCSC(=O)CC(=O)CCC(=O)O [Compound 140, 6-[(2-[3-[(2R)-4-(acetyloxy)-2-hydroxy-3,3-dimethylbutanamido]propanamido]ethyl)sulfanyl]-4,6-dioxohexanoic acid]",activation at 10 µM,[1]; [3],≥ 10%
